Laboratory results reported in patent publication US12232493B2, “Biopesticide formulation and treatment method thereof” (Xinjiang Institute of Ecology and Geography, Chinese …, priority 2023, dated 2025).
Read-outs that look alike come from different tables or passages of the source.

Legend:
mung bean = assay: Pot experiment under drought treatment, terrein seed soaking or spraying, mung bean; format: in vivo
Protocol: (§1) An embodiment of effects of 2 μg/mL terrein formulation on the growth of four crops by seed soaking treatment under drought conditions is as follows. Terrein (purity 95%) is prepared as a solution with a concentration of 2 μg/mL in distilled water, and pakchoi, mung bean, sorghum, and wheat seeds are soaked in it for 6 hours, and the seeds are also soaked in distilled water as a blank control. Subsequently, the soaked crop seeds are sown into potted plants, and each of the treatment group is replicated five times. When the seedlings grew to about 10 cm, the drought treatment culture is carried out. The room temperature is 25° C., the humidity is 70%, 12 hours of light and 12 hours of darkness each day, and the light intensity is 80-100 μmol·m^−2·s^−1. During the period, the soil was kept in a dry state, and 200 mL is watered every week for 30 days, with a total of 800 mL. The drought culture conditions described below are all treated in the same way. After 30 days, the root length, seedling height, and fresh weight of pakchoi, mung bean, sorghum, and wheat are measured, and 10 seedlings are selected from each of the treatment groups, with a total of 50 plants (N=50), hereafter, they are dried in an oven and then measured dry weight. The growth rates of root length, seedling height, fresh weight, and dry weight of pakchoi, mung bean, sorghum, and wheat under 2 μg/mL compared to the blank control are first calculated, that is, An embodiment of effects of 10 μg/mL terrein formulation on the growth of four crops by seed soaking treatment under drought conditions is as follows. Terrein is prepared as a solution with a concentration of 10 μg/mL in distilled water, and pakchoi, mung bean, sorghum, and wheat seeds are soaked in it for 6 hours, and the seeds are also soaked in distilled water as a blank control. Subsequently, the soaked crop seeds are sown into potted plants. When the seedlings grew to about 10 cm, the drought treatment culture is carried out. After 30 days, the root length, seedling height, and fresh weight of pakchoi, mung bean, sorghum, and wheat are measured, hereafter, they are dried in an oven and then measured dry weight. An embodiment of effects of 2 μg/mL terrein formulation on the growth of four crops by spraying treatment under drought conditions is as follows. Seeds of four tested plants are soaked in distilled water and then sowing. Terrein is prepared as a solution with a concentration of 2 μg/mL in distilled water. When the potted pakchoi, mung bean, sorghum, and wheat grow to about 10 cm (15-20 days after sowing), spray them once, with an amount of about 3 mL, and distilled water sprayed used as blank control. Subsequently, the drought treatment culture is carried out. The room temperature is 25° C., the humidity is 70%, 12 hours of light and 12 hours of darkness each day, and the light intensity is 80-100 μmol·m^−2·s^−1. During the period, the soil was kept in a dry state, and 200 mL is watered every week for 30 days, with a total of 800 mL. After 30 days, the root length, seedling height, and fresh weight of pakchoi, mung bean, sorghum, and wheat are measured, hereafter, they are dried in an oven and then measured dry weight. An embodiment of effects of 10 μg/mL terrein formulation on the growth of four crops by spraying treatment under drought conditions is as follows. Seeds of four tested plants are soaked in distilled water and then sowing. Terrein is prepared as a solution with a concentration of 10 μg/mL in distilled water. When the potted pakchoi, mung bean, sorghum, and wheat grow to about 10 cm (15-20 days after sowing), spray them once, with an amount of about 3 mL, and distilled water sprayed used as blank control. Subsequently, the drought treatment is carried out. After 30 days, the root length, seedling height, and fresh weight of pakchoi, mung bean, sorghum, and wheat are measured, hereafter, they are dried in an oven and then measured dry weight. […]

sorghum = assay: Pot experiment under drought treatment, terrein seed soaking or spraying, sorghum; format: in vivo
Protocol: as §1

pakchoi = assay: Indoor petri dish bioassay, pakchoi under drought treatment conditions; format: in vivo; conditions: for inhibition at 250 µg/mL: terrein 250 μg/mL
Protocol: The present invention has done corresponding indoor petri dish bioassay experiments before, with pakchoi under drought treatment conditions as the recipient plant, terrein as the donor, and the concentration of terrein is set to 0, 2, 10, 50 and 250 μg/mL. […] Therefore, the present invention only selects low concentrations (2 μg/mL, 10 μg/mL) for experiments to confirm the effect of terrein on drought resistance and growth promotion of crops in outdoor pot experiments.

Solubility in water = format: physicochemical
[1] = 2 μg/mL terrein seed soaking treatment, drought, 30 days
[2] = 2 μg/mL terrein seed soaking, drought, 30 days
[3] = 2 μg/mL terrein seed soaking, drought, 30 days, p<0.05
[4] = 2 μg/mL terrein spraying at seedling stage
[5] = 2 μg/mL terrein spraying treatment, drought, 30 days
[6] = 2 μg/mL terrein spraying, drought, 30 days
[7] = 10 μg/mL terrein seed soaking treatment, drought, 30 days
[8] = 10 μg/mL terrein seed soaking, drought
[9] = 10 μg/mL terrein seed soaking, drought, 30 days
[10] = 10 μg/mL terrein spraying treatment, drought, 30 days
[11] = 10 μg/mL terrein spraying, drought
[12] = 10 μg/mL terrein spraying, drought, 30 days

Which effect on growth (mung bean; 2 μg/mL terrein seed soaking) does the source give for `C/C=C/C1=CC(=O)[C@H](O)[C@H]1O` [terrein] here?
The effect on growth was “significantly promote”.

What about the dry weight (mung bean; [1]) of the same molecule?
The dry weight was 0.15 g.

What about the fresh weight (mung bean; [1]) of the same molecule?
The fresh weight was 0.98 g.

And the root length (mung bean; [1])?
The root length was 14.19 cm.

And the seedling height (mung bean; [1])?
Its seedling height is 22.54 cm.

And the “growth rate of dry weight compared with the blank control” value (mung bean; [2])?
The value was 28.07%.

What about the “growth rate of root length compared with the blank control” value (mung bean; [2]) of the same molecule?
The value was 44.72%.

And the “effect on fresh weight compared with the blank control” value (mung bean; [3])?
Its value is “not significant”.

And the “effect on seedling height compared with the blank control” value (mung bean; [3])?
Its value is “not significant”.

And the effect on growth (mung bean; [4])?
The effect on growth was “significant promoting effect”.

And the dry weight (mung bean; [5])?
Its dry weight is 0.14 g.

And the fresh weight (mung bean; [5])?
The fresh weight was 0.92 g.

And the root length (mung bean; [5])?
Its root length is 15.88 cm.

What about the seedling height (mung bean; [5]) of the same molecule?
Its seedling height is 23.99 cm.

And the “growth rate of root length compared with the blank control” value (mung bean; [6])?
The value was 61.95%.

And the dry weight (mung bean; [7])?
The dry weight was 0.16 g.

And the fresh weight (mung bean; [7])?
The fresh weight was 0.87 g.

What about the root length (mung bean; [7]) of the same molecule?
The root length was 12.84 cm.

And the seedling height (mung bean; [7])?
Its seedling height is 24.21 cm.

What about the effect on growth (mung bean; [8]) of the same molecule?
Its effect on growth is “significant promoting effect”.

And the “growth rate of dry weight compared with the blank control” value (mung bean; [9])?
The value was 35.65%.

And the “growth rate of root length compared with the blank control” value (mung bean; [9])?
Its value is 30.92%.

And the dry weight (mung bean; [10])?
Its dry weight is 0.15 g.

What about the fresh weight (mung bean; [10]) of the same molecule?
Its fresh weight is 1.16 g.

And the root length (mung bean; [10])?
The root length was 15.42 cm.

What about the seedling height (mung bean; [10]) of the same molecule?
The seedling height was 22.08 cm.

And the effect on growth (mung bean; [11])?
The effect on growth was “significant promoting effects”.

And the “growth rate (promotion rate) of dry weight compared with the blank control” value (mung bean; [12])?
Its value is 26.98%.

What about the “growth rate (promotion rate) of fresh weight compared with the blank control” value (mung bean; [12]) of the same molecule?
Its value is 56.18%.

And the “growth rate (promotion rate) of root length compared with the blank control” value (mung bean; [12])?
The value was 57.20%.

And the dry weight (sorghum; [1])?
The dry weight was 0.37 g.

And the fresh weight (sorghum; [1])?
Its fresh weight is 1.71 g.

What about the root length (sorghum; [1]) of the same molecule?
Its root length is 35.67 cm.

And the seedling height (sorghum; [1])?
The seedling height was 40.43 cm.

And the effect on growth (sorghum; [2])?
The effect on growth was “no significant effect”.

And the effect on growth (sorghum; [4])?
Its effect on growth is “significant promoting effect”.

What about the dry weight (sorghum; [5]) of the same molecule?
The dry weight was 0.40 g.

And the fresh weight (sorghum; [5])?
Its fresh weight is 1.92 g.

What about the root length (sorghum; [5]) of the same molecule?
The root length was 38.15 cm.

And the seedling height (sorghum; [5])?
Its seedling height is 39.14 cm.

What about the “growth rate of dry weight compared with the blank control” value (sorghum; [6]) of the same molecule?
The value was 20.80%.

And the “growth rate of fresh weight compared with the blank control” value (sorghum; [6])?
Its value is 18.92%.

And the “growth rate of root length compared with the blank control” value (sorghum; [6])?
Its value is 18.49%.

What about the dry weight (sorghum; [7]) of the same molecule?
The dry weight was 0.38 g.

And the fresh weight (sorghum; [7])?
The fresh weight was 1.88 g.

And the root length (sorghum; [7])?
Its root length is 33.99 cm.

What about the seedling height (sorghum; [7]) of the same molecule?
The seedling height was 39.69 cm.

And the effect on growth (sorghum; [8])?
Its effect on growth is “significant promoting effect”.

What about the “growth rate of dry weight compared with the blank control” value (sorghum; [9]) of the same molecule?
The value was 15.42%.

What about the dry weight (sorghum; [10]) of the same molecule?
Its dry weight is 0.42 g.

And the fresh weight (sorghum; [10])?
Its fresh weight is 1.93 g.

And the root length (sorghum; [10])?
Its root length is 42.01 cm.

And the seedling height (sorghum; [10])?
The seedling height was 38.16 cm.

And the effect on growth (sorghum; [11])?
The effect on growth was “significant promoting effects”.

What about the “growth rate (promotion rate) of dry weight compared with the blank control” value (sorghum; [12]) of the same molecule?
Its value is 25.19%.

What about the “growth rate (promotion rate) of fresh weight compared with the blank control” value (sorghum; [12]) of the same molecule?
The value was 19.90%.

And the “growth rate (promotion rate) of root length compared with the blank control” value (sorghum; [12])?
Its value is 30.50%.

What about the “promotion rate of pakchoi root length” value (pakchoi; terrein 2 μg/mL) of the same molecule?
The value was 13.51%.

And the “promotion rate of pakchoi seedling height” value (pakchoi; terrein 2 μg/mL)?
Its value is 21.70%.

And the “promotion rate of pakchoi root length” value (pakchoi; terrein 10 μg/mL)?
Its value is 18.82%.

What about the “promotion rate of pakchoi seedling height” value (pakchoi; terrein 10 μg/mL) of the same molecule?
The value was 23.26%.

And the “effect on seedling height” value (pakchoi; terrein 50 μg/mL)?
The value was “not significant”.

And the inhibition at 50 µg/mL (pakchoi; terrein 50 μg/mL, read-out: inhibition rate of pakchoi root length)?
The inhibition at 50 µg/mL was 16%.

What about the inhibition at 250 µg/mL (pakchoi; read-out: inhibition rate of pakchoi root length) of the same molecule?
Its inhibition at 250 µg/mL is 86.8%.

And the inhibition at 250 µg/mL (pakchoi; read-out: inhibition rate of pakchoi seedling height)?
Its inhibition at 250 µg/mL is 5.71%.

And the solubility in water (Solubility in water)?
The solubility in water was “easily soluble in water”.
